Source: ChEMBL document CHEMBL3045711, “Neonicotinoid insecticides: oxidative stress in planta and metallo-oxidase inhibition” (J Agric Food Chem, 2011)

Legend:
[1] = biological target: T1, Catalase (Bos taurus, UniProt P00432); assay type: ADME, tissue-based, Liver
T1 sequence (P00432 whole entry): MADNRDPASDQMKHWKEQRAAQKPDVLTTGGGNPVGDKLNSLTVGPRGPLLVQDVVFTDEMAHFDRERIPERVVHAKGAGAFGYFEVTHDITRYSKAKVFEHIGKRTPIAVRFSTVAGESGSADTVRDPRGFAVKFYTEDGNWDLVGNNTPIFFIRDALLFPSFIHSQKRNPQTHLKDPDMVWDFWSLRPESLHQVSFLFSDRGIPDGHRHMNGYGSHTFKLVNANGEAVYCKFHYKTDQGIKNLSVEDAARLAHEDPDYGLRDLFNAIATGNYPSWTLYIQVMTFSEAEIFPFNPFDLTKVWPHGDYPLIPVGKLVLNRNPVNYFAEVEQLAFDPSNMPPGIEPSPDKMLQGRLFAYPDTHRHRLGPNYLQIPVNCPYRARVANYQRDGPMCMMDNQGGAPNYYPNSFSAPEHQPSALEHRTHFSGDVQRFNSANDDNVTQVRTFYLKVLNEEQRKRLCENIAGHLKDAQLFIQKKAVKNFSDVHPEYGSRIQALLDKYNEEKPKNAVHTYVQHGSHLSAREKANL
Description: Inhibition of Bos taurus (bovine) CAT in liver

[2] = biological target: T2, Aldehyde oxidase 1 (Oryctolagus cuniculus, UniProt P80456); assay type: ADME, tissue-based, Liver, Cytosol
T2 sequence (P80456 whole entry): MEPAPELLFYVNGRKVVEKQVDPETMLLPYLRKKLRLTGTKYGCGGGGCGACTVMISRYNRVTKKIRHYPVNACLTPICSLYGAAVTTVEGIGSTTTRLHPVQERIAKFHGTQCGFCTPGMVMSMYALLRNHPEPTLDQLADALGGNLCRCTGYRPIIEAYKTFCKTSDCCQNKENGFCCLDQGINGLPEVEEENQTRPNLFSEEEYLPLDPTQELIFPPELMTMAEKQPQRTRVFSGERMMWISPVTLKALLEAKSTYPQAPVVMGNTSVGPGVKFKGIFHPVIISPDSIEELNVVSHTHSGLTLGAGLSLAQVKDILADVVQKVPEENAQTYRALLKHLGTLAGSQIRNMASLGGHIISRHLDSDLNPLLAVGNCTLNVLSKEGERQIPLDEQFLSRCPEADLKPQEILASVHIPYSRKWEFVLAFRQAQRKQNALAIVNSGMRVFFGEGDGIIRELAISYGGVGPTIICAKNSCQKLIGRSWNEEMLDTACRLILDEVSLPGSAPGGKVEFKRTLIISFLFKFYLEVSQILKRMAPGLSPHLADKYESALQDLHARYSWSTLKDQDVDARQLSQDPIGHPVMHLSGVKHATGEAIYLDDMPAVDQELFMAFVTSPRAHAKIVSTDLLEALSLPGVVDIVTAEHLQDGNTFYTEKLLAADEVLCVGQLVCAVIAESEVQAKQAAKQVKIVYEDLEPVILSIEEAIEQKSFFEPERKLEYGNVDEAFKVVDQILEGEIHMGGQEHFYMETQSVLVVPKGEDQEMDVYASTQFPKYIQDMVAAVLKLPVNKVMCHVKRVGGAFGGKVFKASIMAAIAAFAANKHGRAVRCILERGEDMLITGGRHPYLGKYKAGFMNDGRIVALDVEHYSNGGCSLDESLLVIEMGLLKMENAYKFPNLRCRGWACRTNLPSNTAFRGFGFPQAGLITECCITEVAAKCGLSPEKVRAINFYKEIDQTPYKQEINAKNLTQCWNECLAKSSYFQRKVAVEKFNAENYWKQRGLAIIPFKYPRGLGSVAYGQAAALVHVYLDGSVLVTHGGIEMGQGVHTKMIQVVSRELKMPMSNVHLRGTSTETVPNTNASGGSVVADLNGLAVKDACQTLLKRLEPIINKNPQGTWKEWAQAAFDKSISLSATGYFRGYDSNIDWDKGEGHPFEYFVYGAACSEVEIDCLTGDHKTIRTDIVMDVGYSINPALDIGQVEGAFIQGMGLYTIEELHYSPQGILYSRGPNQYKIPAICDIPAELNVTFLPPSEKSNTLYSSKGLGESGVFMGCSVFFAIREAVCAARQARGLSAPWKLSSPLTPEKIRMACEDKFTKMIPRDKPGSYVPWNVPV
Description: Inhibition of Oryctolagus cuniculus (rabbit) AOX in liver cytosol

[3] = biological target: T3, Tyrosinase (Agaricus bisporus, UniProt O42713)
T3 sequence (O42713 whole entry): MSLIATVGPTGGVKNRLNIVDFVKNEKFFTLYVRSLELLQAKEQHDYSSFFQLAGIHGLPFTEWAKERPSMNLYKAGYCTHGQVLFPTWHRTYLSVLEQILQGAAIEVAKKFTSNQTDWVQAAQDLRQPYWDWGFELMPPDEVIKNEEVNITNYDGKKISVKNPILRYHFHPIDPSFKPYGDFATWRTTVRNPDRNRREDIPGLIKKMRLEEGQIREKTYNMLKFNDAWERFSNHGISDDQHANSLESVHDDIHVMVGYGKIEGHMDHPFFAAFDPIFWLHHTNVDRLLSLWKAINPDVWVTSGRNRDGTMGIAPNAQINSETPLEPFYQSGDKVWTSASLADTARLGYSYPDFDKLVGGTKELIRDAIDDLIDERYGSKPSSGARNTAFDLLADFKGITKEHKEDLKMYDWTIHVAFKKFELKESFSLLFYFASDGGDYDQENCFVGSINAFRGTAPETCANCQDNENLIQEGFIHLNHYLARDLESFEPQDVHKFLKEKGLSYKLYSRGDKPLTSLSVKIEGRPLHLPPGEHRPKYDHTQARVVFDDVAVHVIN
Description: Inhibition of Agaricus bisporus (mushroom) tyrosinase

[4] = test system: Spinacia oleracea; test: Phytotoxicity against Spinacia oleracea (spinach) seedlings assessed as lesions at 100 ppm after 9 days; assay type: organism-based; conditions: in vivo, 216 h

Row | Compound | IC50 [1] | IC50 [2] | IC50 ([3]; read-out: IC50) | Activity [4] | IC50 [3]
1 | O=C(O)c1cnc(Cl)s1 | > 1 mM | > 1000 µM | > 1000 µM | – | –
2 | C/C(=N\C#N)N(C)Cc1ccc(Cl)nc1 | – | > 1000 µM | 1740 µM | Toxic | –
3 | O=C(O)c1ccccc1 [BENZOIC ACID] | > 1 mM | > 1000 µM | 270 µM | – | –
4 | O=Cc1cccnc1 [NICOTINALDEHYDE] | – | 600 µM | 28 µM | – | –
5 | O=Cc1cccnc1Cl [2-CHLORONICOTINALDEHYDE] | – | 350 µM | > 1000 µM | – | –
6 | O=C(O)c1ccc(Cl)nc1 [6-CHLORONICOTINIC ACID] | > 1 mM | > 1000 µM | > 1000 µM | – | –
7 | CN/C(=N/CC1CCOC1)N[N+](=O)[O-] (stereo not drawn) [DINOTEFURAN] | – | > 1000 µM | > 1000 µM | – | –
8 | CN/C(=N\[N+](=O)[O-])NCc1cnc(Cl)s1 [CLOTHIANIDINE] | – | > 1000 µM | > 1000 µM | Toxic | –
9 | O=Cc1cncs1 [THIAZOLE-5-CARBALDEHYDE] | – | 890 µM | 7 µM | – | –
10 | O=CC1CCOC1 (stereo not drawn) [TETRAHYDROFURAN-3-CARBALDEHYDE] | – | 360 µM | > 1000 µM | – | –
11 | O=Cc1ccc(O)cc1 [4-HYDROXYBENZALDEHYDE] | – | 570 µM | 770 µM | – | –
12 | O=Cc1ccc(Cl)nc1 [6-CHLORONICOTINALDEHYDE] | – | 720 µM | 770 µM | – | –
13 | O=Cc1cnc(Cl)s1 | – | 360 µM | 64 µM | – | –
14 | O=Cc1ccoc1 [FURAN-3-CARBALDEHYDE] | – | 260 µM | 15 µM | – | –
15 | O=C(O)c1ccc(Cl)cc1O | > 1 mM | > 1000 µM | 520 µM | – | –
16 | CN1COCN(Cc2cnc(Cl)s2)/C1=N\[N+](=O)[O-] [THIAMETHOXAM] | – | > 1000 µM | > 1000 µM | – | –
17 | CCN(Cc1ccc(Cl)nc1)/C(=C/[N+](=O)[O-])NC | – | > 1000 µM | > 1000 µM | – | –
18 | O=Cc1ccccc1 [BENZALDEHYDE] | – | 660 µM | – | – | –
19 | O=C(c1ccc(OCCN2CCCCC2)cc1)c1c(-c2ccc(O)cc2)sc2cc(O)ccc12 [RALOXIFENE] | – | 1530 µM | – | – | ND(Insoluble)
20 | Oc1ncnc2[nH]ncc12 [ALLOPURINOL] | – | > 1000 µM | > 1000 µM | – | –
21 | O=C(O)C1CCOC1 (stereo not drawn) | > 1 mM | > 1000 µM | > 1000 µM | – | –
22 | O=Cc1ccco1 [FURFURAL] | – | 700 µM | 43 µM | – | –
23 | O=C(O)c1cccnc1 [NIACIN] | – | – | > 1000 µM | – | –
24 | N=C(N)NN [PIMAGEDINE] | 0.5 mM | – | – | – | –
25 | O=C(O)c1ccc(S)nc1 [6-MERCAPTONICOTINIC ACID] | > 1 mM | > 1000 µM | 42 µM | – | –
26 | O=C(O)c1cccnc1S [2-MERCAPTONICOTINIC ACID] | > 1 mM | > 1000 µM | 80 µM | – | –
